{"source": "patent US11866430B2", "about": "“Naphthyridinone compounds useful as T cell activators” (priority 2018, dated 2024)", "key": {"human DGKα": {"target": "human DGKα (Homo sapiens (Human), UniProt P23743)", "sequence (P23743 other isoform, or with tags, fused parts or gaps)": "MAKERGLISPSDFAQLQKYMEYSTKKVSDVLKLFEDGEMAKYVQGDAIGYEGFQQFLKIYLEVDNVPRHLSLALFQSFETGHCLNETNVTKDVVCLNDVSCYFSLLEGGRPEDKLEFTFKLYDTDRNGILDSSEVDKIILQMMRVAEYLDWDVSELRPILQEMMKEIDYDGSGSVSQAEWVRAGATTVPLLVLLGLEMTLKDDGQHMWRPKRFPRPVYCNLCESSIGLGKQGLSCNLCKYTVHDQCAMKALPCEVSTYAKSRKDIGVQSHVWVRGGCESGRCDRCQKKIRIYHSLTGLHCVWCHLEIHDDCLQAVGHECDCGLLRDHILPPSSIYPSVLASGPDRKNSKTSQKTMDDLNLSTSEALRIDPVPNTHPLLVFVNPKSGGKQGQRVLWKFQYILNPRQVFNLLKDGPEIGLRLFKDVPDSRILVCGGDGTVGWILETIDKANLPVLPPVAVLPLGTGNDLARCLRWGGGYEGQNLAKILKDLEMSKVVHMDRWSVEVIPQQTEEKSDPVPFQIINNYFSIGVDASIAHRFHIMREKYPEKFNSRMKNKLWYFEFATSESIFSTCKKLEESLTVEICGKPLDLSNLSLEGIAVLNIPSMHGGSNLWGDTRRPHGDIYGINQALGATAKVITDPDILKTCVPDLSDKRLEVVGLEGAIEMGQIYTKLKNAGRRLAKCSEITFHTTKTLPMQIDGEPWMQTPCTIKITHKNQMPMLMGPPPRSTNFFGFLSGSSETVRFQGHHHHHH", "assay": "biochemical", "settings": "detergent/lipid micelle substrate; read-out: DGKα IC50", "outline": "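Enzymes were baculovirus/Sf9 full-length human DGKα or DGKζ with His tag. The substrate was PS/DAG in octyl glucoside micelles, in MOPS pH 7.5 buffer with NaCl, MgCl2, CaCl2 and DTT.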"}, "naïve human CD8 T cells": {"test_system": "naïve human CD8 T cells", "assay": "cells", "settings": "3 μM Example 40 co-stimulation as 100% activation", "outline": "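Thawed frozen cells, 40,000/well, stimulated on plate-bound anti-CD3 (coated at 0.05 μg/mL) plus soluble anti-CD28 0.1 μg/mL; compounds added immediately after plating. After 20 h at 37° C., supernatant IFN-γ quantitated by AlphaLISA, counts converted to IFN-γ concentration […].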"}, "[1]": {"test_system": "pre-activated CD4 T cells and Raji cells", "assay": "Raji CD4 T Cell IL2 Assay", "type": "cell-based", "settings": "Homo sapiens, Raji"}, "[2]": {"settings": "read-out: HuCD8 INFG Normalized EC50, anti-CD3 plus anti-CD28 as baseline"}}, "note": "pEC50, pIC50: −log10 of the molar value. Read-outs that look alike come from different tables or passages of the source.", "data": [{"smiles": "COc1cc(F)ccc1C(c1ccc(F)cc1)N1CCN(c2c(C#N)c(=O)n(C)c3ccc(Br)nc23)CC1", "note": "(single isomer, unassigned) [Example 17, 6-bromo-4-{4-[(4-fluoro-2-methoxyphenyl)(4-fluorophenyl)methyl]piperazin-1-yl}-1-methyl-2-oxo-1,2-dihydro-1,5-naphthyridine-3-carbonitrile]", "values": [{"measurement": "pIC50", "setting": "human DGKα", "result": 6.03}, {"measurement": "pEC50", "setting": "naïve human CD8 T cells; Homo sapiens, T-cell, read-out: HuCD8 INFG Normalized EC50, anti-CD3 plus anti-CD28 as baseline", "result": 6.28}]}, {"smiles": "C#CCn1c(=O)c([N+](=O)[O-])c(N2CCN(C(c3ccc(F)cc3)c3ccc(F)cc3O)CC2)c2nc(C#N)ccc21", "note": "(single isomer, unassigned) [Example 121, 8-(4-((4-fluoro-2-hydroxyphenyl)(4-fluorophenyl)methyl)piperazin-1-yl)-7-nitro-6-oxo-5-(prop-2-yn-1-yl)-5,6-dihydro-1,5-naphthyridine-2-carbonitrile]", "values": [{"measurement": "pIC50", "setting": "human DGKα", "result": 5.72}]}, {"smiles": "C#CCn1c(=O)c([N+](=O)[O-])c(N2CCN(C(C)c3ccc(F)cc3)CC2)c2nc(C#N)ccc21", "note": "(single isomer, unassigned) [Example 136, 8-(4-(1-(4-fluorophenyl)ethyl)piperazin-1-yl)-7-nitro-6-oxo-5-(prop-2-yn-1-yl)-5,6-dihydro-1,5-naphthyridine-2-carbonitrile]", "values": [{"measurement": "pIC50", "setting": "human DGKα", "result": 6.68}]}, {"smiles": "COc1cc(F)ccc1C(c1ccc(F)cc1)N1CCN(c2c(C#N)c(=O)n(C)c3ccc(C#N)nc23)CC1", "note": "(single isomer, unassigned) [Example 406, 8-{4-[(4-fluoro-2-methoxyphenyl)(4-fluorophenyl)methyl]piperazin-1-yl}-5-methy-6-oxo-5,6-dihydro-L5-naphthyridine-2,7-dicarbonitrile]", "values": [{"measurement": "pEC50", "setting": "naïve human CD8 T cells; [2]", "result": 6.39}]}, {"smiles": "COc1cc(F)ccc1C(c1ccc(F)cc1)N1CCN(c2c(C#N)c(=O)n(C)c3ccc(C#N)nc23)CC1", "note": "(single isomer, unassigned) [Example 407, 8-{4-[(4-fluoro-2-methoxyphenyl)(4-fluorophenyl)methyl]piperazin-1-yl}-5-methy-6-oxo-5,6-dihydro-L5-naphthyridine-2,7-dicarbonitrile]", "values": [{"measurement": "pEC50", "setting": "naïve human CD8 T cells; [2]", "result": 6.92}]}, {"smiles": "Cn1c(=O)c(C#N)c(N2CCN(C(c3ccc(F)cc3)c3ccccc3O)CC2)c2nc(C#N)ccc21", "note": "(centres unmarked) [Example 11, 8-{4-[(4-fluorophenyl)(2-hydroxyphenyl)methyl]piperazin-1-yl}-5-methyl-6-oxo-5,6-dihydro-1,5-naphthyridine-2,7-dicarbonitrile]", "values": [{"measurement": "pIC50", "setting": "human DGKα", "result": 6.35}]}, {"smiles": "Cn1c(=O)c([N+](=O)[O-])c(N2CCN(CC(O)c3ccc(F)cc3)CC2)c2nc(C#N)ccc21", "note": "(centres unmarked) [Example 36, 8-{4-[2-(4-fluorophenyl)-2-hydroxyethyl]piperazin-1-yl}-5-methyl-7-nitro-6-oxo-5,6-dihydro-1,5-naphthyridine-2-carbonitrile]", "values": [{"measurement": "pIC50", "setting": "human DGKα", "result": 5.85}]}, {"smiles": "Cc1ccc(CN2CCN(c3c(C#N)c(=O)n(C)c4ccc(Br)nc34)CC2)c(O)c1", "note": "[Example 372, 6-bromo-4-{4-[(2-hydroxy-4-methylphenyl)methyl]piperazin-1-yl}-1-methyl-2-oxo-1,2-dihydro-1,5-naphthyridine-3-carbonitrile]", "values": [{"measurement": "pIC50", "setting": "human DGKα", "result": 7.48}, {"measurement": "pIC50", "setting": "[1]", "result": "< 4.00"}]}, {"smiles": "Cc1ccc2c(n1)c(N1CCN(Cc3cccc(Cl)c3O)CC1)c(C#N)c(=O)n2C", "note": "[Example 389, 4-{4-[(3-chloro-2-hydroxyphenyl)methyl]piperazin-1-yl}-1,6-dimethyl-2-oxo-1,2-dihydro-1,5-naphthyridine-3-carbonitrile]", "values": [{"measurement": "pIC50", "setting": "human DGKα", "result": 6.07}]}, {"smiles": "Cc1cccc(CN2CCN(c3c(C#N)c(=O)n(C)c4ccc(Cl)nc34)CC2)c1O", "note": "[Example 391, 6-chloro-4-{4-[(2-hydroxy-3-methylphenyl)methyl]piperazin-1-yl}-1-methyl-2-oxo-1,2-dihydro-1,5-naphthyridine-3-carbonitrile]", "values": [{"measurement": "pIC50", "setting": "human DGKα", "result": 6.59}]}, {"smiles": "COc1cc(C#N)ccc1CN1CCN(c2c(C#N)c(=O)n(C)c3ccc(Cl)nc23)CC1", "note": "[Example 424, 6-chloro-4-{4-[(4-cyano-2-methoxyphenyl)methyl]piperazin-1-yl}-1-methyl-2-oxo-1,2-dihydro-1,5-naphthyridine-3-carbonitrile]", "values": [{"measurement": "pIC50", "setting": "human DGKα", "result": 6.11}, {"measurement": "pIC50", "setting": "[1]", "result": "< 4.00"}]}]}
